# Columns and labels:
# [1] = test system: Erysiphe graminis. f. sp. tritici; experiment: Erysiphe test (wheat)/curative; assay type: in vivo; conditions: curative, sprayed 48 hours after inoculation, application rate 250 g/ha, evaluation 7 days after inoculation
# Description: Erysiphe Test (Wheat)/Curative Solvent: 10 parts by weight of N-methyl-pyrrolidone Emulsifier: 0.6 parts by weight of alkylaryl polyglycol ether To produce a suitable preparation of active compound, 1 part by weight of active compound is mixed with the stated amounts of solvent and emulsifier, and the concentrate is diluted with water to the desired concentration. To test for curative activity, young plants are dusted with spores of Erysiphe graminis. f. sp. tritici. 48 hours after the inoculation, the plants are sprayed with the preparation of active compound at the stated application rate. The plants are placed in a greenhouse at a temperature of about 20° C. and a relative atmospheric humidity of about 80%, in order to promote the development of mildew […]. Evaluation is carried out 7 days after the inoculation.
# [2] = test system: Pseudocercosporella herpotrichoides; experiment: Pseudocercosporella herpotrichoides test (wheat)/protective; assay type: in vivo; conditions: protective, application rate 250 g/ha, evaluation 21 days after inoculation
# Description: Pseudocercosporella Herpotrichoides Test (Wheat)/Protective Solvent: 10 parts by weight of N-methyl-pyrrolidone Emulsifier: 0.6 parts by weight of alkylaryl polyglycol ether To produce a suitable preparation of active compound, 1 part by weight of active compound is mixed with the stated amounts of solvent and emulsifier, and the concentrate is diluted with water to the desired concentration. To test for protective activity, young plants are sprayed with the preparation of active compound at the stated application rate. After the spray coating has dried on, the stem bases of the plants are inoculated with spores of Pseudocercosporella herpotrichoides. The plants are placed in a greenhouse at a temperature of about 10° C. and a relative atmospheric humidity of about 80%. Evaluation is carried out 21 days after the inoculation.
smiles,measurement,setting,value
CNC(=O)C(=NOC)C1=C(/C=C/c2ccccc2)CCC1 [compound (1)],efficacy,[1],75%
same,efficacy,[2],90%
same,melting point,,135 to 140 °C

# Reference: patent US6437127B1, “Substituted cycloalkenes and their use as microbices, especially as fungicides” (Bayer Aktiengesellschaft, priority 1995, dated 2002)
